Patent publication US8343475B2, “Small cationic antimicrobial peptides” (priority 2006, dated 2013)
In brackets after ≈: the same amount, converted by molar mass. Residues, ends and D or L forms follow the SMILES beside them.

Assays:
[1] = system: Enterococcus faecalis ATCC29212; assay type: cell-based; details: ATCC29212
Procedure, shortened: (§1)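 MIC by modified broth microdilution in Mueller Hinton medium. Peptides were diluted in 0.01% acetic acid with 0.2% BSA and added at 10× to inoculum of 2-7×10^5 CFU/ml, then incubated overnight at 37 °C. MIC is the lowest concentration with no visible growth.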

[2] = system: Staphylococcus aureus ATCC25923; assay type: cell-based; details: ATCC25923
Procedure, shortened: as §1

[3] = system: wild-type Salmonella enterica ssp. typhimurium; assay type: cell-based
Procedure, shortened: as §1

[4] = system: lab isolate of Candida albicans; assay type: cell-based; details: lab isolate of
Procedure, shortened: as §1

[5] = system: clinical isolate of Staphylococcus epidermidis; assay type: cell-based; details: clinical isolate of
Procedure, shortened: as §1

Escherichia coli UB1005 = assay type: cell-based; details: UB1005
Procedure, shortened: as §1

[6] = system: CXCL1 (Gro-α) release by human PBMC; experiment: Chemokine induction in PBMC (capture ELISA); assay type: cell-based; details: background (196) subtracted
Procedure, shortened: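 Human PBMC from healthy donors' heparinised blood (Ficoll), 7.5×10^5 cells treated with 20 or 100 μg/ml peptide for 24 h at 37° C, 5% CO2. Cell-free supernatants assayed for CXCL1 by capture ELISA.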

[7] = system: MCP-1 release by human PBMC; experiment: Chemokine induction in PBMC (capture ELISA); assay type: cell-based; details: for Chemokine induction MCP-1: background (204) subtracted
Procedure, shortened: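 Heparinized blood from healthy volunteers; Ficoll-isolated human PBMC (7.5×10^5) treated with peptides at 20 or 100 μg/ml for 24 hours at 37° C, 5% CO2. Cell-free supernatants assayed for MCP-1 by capture ELISA.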

[8] = system: MCP-3 release by human PBMC; experiment: Chemokine induction in PBMC (capture ELISA); assay type: cell-based; details: background (6) subtracted
Procedure, shortened: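 Human PBMC from healthy donors (Ficoll-isolated), 7.5×10^5 cells at 0.75–1×10^6 cells/ml, treated with peptides at 20 or 100 μg/ml for 24 h at 37° C, 5% CO2. MCP-3 in cell-free supernatants measured by capture ELISA.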

S. aureus = experiment: Mouse model of aggressive bacterial infection (intraperitoneal); assay type: in vivo; details: 1.6×10^10 CFU S. aureus IP; 8 mg/kg peptide IP four hours post infection
Description: FIG. 10. Ability of new antimicrobial peptides HHC-10 and HHC-36 to protect mice against Staph aureus infections. Bacterial loads in the peritoneal lavage from individual mice after 24 hours of infection are shown (solid circles). Dead animals were assigned the highest colony forming unit (CFU) count obtained in the experiment. The solid line represents the arithmetic mean for each group.
(§2) FIG. 18. […] Mice were treated with 1.6×10^10 CFU of S. aureus intraperitoneally. Four hours post infection they received a dose of 8 mg/kg peptide IP. The infection was allowed to progress for 4 or 24 hours after which mice were euthanaised and plate counts of staphylococci surviving in the peritoneum were determined. Bacterial loads in the peritoneal lavage from individual mice after 24 hours of infection are shown (solid circles). The solid line represents the arithmetic mean for each group.
as §2, with “19.” for “18.”
To further confirm this, a mouse model of aggressive bacterial infection, widely used to assess antibiotic efficacy, was utilized. Mice were treated with 1.6×10^10 CFU IP. Four hours post infection they received a dose of 4 mg/kg peptide IP. The infection was allowed to progress for 20 more hours, for a total infection time of 24 hours.
These immunomodulatory activities led to protection against infections by S. aureus. Briefly a mouse model of aggressive bacterial infection, widely used to assess antibiotic efficacy, was utilized. […] The infection was allowed to progress for 4 or 24 hours after which mice were euthanaised and plate counts of staphylococci surviving in the peritoneum were determined.

Compound: CC[C@H](C)[C@H](N)C(=O)N[C@@H](Cc1c[nH]c2ccccc12)C(=O)N[C@H](C(=O)N[C@H](C(=O)N[C@@H](Cc1c[nH]c2ccccc12)C(=O)N[C@@H](CCCNC(=N)N)C(=O)N[C@@H](CCCNC(=N)N)C(N)=O)[C@@H](C)CC)C(C)C [HH18, IWVIWRR-NH2] (H-IWVIWRR-NH2; N-terminus assumed)
- MIC E. faecalis [1]: 25 µg/mL (≈ 24.3 µM)
- MIC S. aureus [2]: 25 µg/mL (≈ 24.3 µM)
- MIC S. typhi [3]: 12.5 µg/mL (≈ 12.2 µM)
- MIC C. albicans [4]: 25 µg/mL (≈ 24.3 µM)
- MIC S. epi. [5]: 6 µg/mL (≈ 5.84 µM)
- MIC E. coli (Escherichia coli UB1005): 6 µg/mL (≈ 5.84 µM)
- Chemokine induction Gro-α ([6]; 20 μg/ml peptide): 865 pg/mL
- Chemokine induction Gro-α ([6]; 100 μg/ml peptide): 2964 pg/mL
- Chemokine induction MCP-1 ([7]; 20 μg/ml peptide): 1111 pg/mL
- Chemokine induction MCP-1 ([7]; 100 μg/ml peptide): 9608 pg/mL
- induction of MCP1 ([7]; 20 or 100 μg/ml peptide, 24 hours (FIG. 15)): induced
- Chemokine induction MCP-3 ([8]; 20 μg/ml peptide): 32 pg/mL
- Chemokine induction MCP-3 ([8]; 100 μg/ml peptide): 431 pg/mL
- protection of mice from S. aureus infections (bacterial loads in peritoneal lavage) (S. aureus): Protection of mice from S. aureus infections
